ChEMBL document CHEMBL1201862, “PubChem BioAssay data set” (2004)
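Step 1: Grow cells in 96-well plates. Step 2: Expose to compound for 48 hours at 5 concentrations. Step 3: Interpolate endpoints linearly; if unreached, use highest concentration. The concentration for 50% growth inhibition is given as GI50.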 Calls of active or inactive are those of the source. Cut-off read from the data, not from the text of the source: active = GI50 up to about 1.1 µM and inactive = higher. Positions of bridges follow the written chain, without caps; N, C: chain ends. Non-standard residues stand in square brackets, D forms with d. Residues, ends and D or L forms follow the SMILES beside them. *: point of attachment. PhAc = O=C(Cc1ccccc1)*

What was measured:
Experiment in all cases: NCI anticancer screen, dose series, 48 h
786-0 = test system: 786-0
A498 = test system: A498
A549 = test system: A549
ACHN = test system: ACHN
CAKI-1 = test system: CAKI-1
EKVX = test system: EKVX
HOP-92 = test system: HOP-92
LOX IMVI = test system: LOX IMVI
MDA-MB-231 = test system: MDA-MB-231
MDA-N = test system: MDA-N
NCI-H522 = test system: NCI-H522
NCI/ADR-RES = test system: NCI/ADR-RES
OVCAR-3 = test system: OVCAR-3
SK-MEL-5 = test system: SK-MEL-5
SK-OV-3 = test system: SK-OV-3
SNB-19 = test system: SNB-19
U-251 = test system: U-251
UACC-257 = test system: UACC-257
RPMI-8226 = test system: RPMI-8226
RXF 393 = test system: RXF 393

SMILES: COc1ccc2nc(-c3ccc(OC(=O)N(C)C)cc3)cn2c1
- GI50 (786-0): 91.6 µM (inactive)
- GI50 (A498): > 100 µM (inactive)
- GI50 (A549): > 100 µM (inactive)
- GI50 (ACHN): > 100 µM (inactive)
- GI50 (CAKI-1): > 100 µM (inactive)
- GI50 (EKVX): > 100 µM (inactive)
- GI50 (HOP-92): > 100 µM (inactive)
- GI50 (LOX IMVI): 82.8 µM (inactive)
- GI50 (MDA-MB-231): > 100 µM (inactive)
- GI50 (MDA-N): > 100 µM (inactive)
- GI50 (NCI-H522): 36 µM (inactive)
- GI50 (NCI/ADR-RES): > 100 µM (inactive)
- GI50 (OVCAR-3): > 100 µM (inactive)
- GI50 (SK-MEL-5): > 100 µM (inactive)
- GI50 (SK-OV-3): > 100 µM (inactive)
- GI50 (SNB-19): > 100 µM (inactive)
- GI50 (U-251): > 100 µM (inactive)
- GI50 (UACC-257): > 100 µM (inactive)

SMILES: CC(=O)O[C@@H]1C[C@@]2(C)[C@@H]3CC=C4[C@@H](C[C@H](O)C(=O)C4(C)C)[C@]3(C)C(=O)C[C@]2(C)[C@H]1[C@@](C)(O)C(=O)/C=C/C(C)(C)OC(C)=O
- GI50 (786-0): 0.352 µM (active)
- GI50 (A498): 0.0151 µM (active)
- GI50 (A549): 0.881 µM (active)
- GI50 (ACHN): 0.16 µM (active)
- GI50 (CAKI-1): 0.211 µM (active)
- GI50 (EKVX): 2.72 µM (inactive)
- GI50 (HOP-92): 0.912 µM (active)
- GI50 (LOX IMVI): 2.74 µM (inactive)
- GI50 (MDA-MB-231): 2.78 µM (inactive)
- GI50 (MDA-N): 1.37 µM (inactive)
- GI50 (NCI-H522): 0.541 µM (active)
- GI50 (NCI/ADR-RES): 3.64 µM (inactive)
- GI50 (OVCAR-3): 4.81 µM (inactive)
- GI50 (RPMI-8226): 2.02 µM (inactive)
- GI50 (SK-MEL-5): 1.99 µM (inactive)
- GI50 (SK-OV-3): < 0.0251 µM (active)
- GI50 (SNB-19): 3.21 µM (inactive)
- GI50 (U-251): 0.617 µM (active)
- GI50 (UACC-257): 0.594 µM (active)

SMILES: CC1C2(C)OC(=N)C(C#N)(C(c3cccc([N+](=O)[O-])c3)O2)C1(C#N)C#N (stereo unspecified)
- GI50 (786-0): 17.4 µM (inactive)
- GI50 (A498): > 100 µM (inactive)
- GI50 (A549): > 100 µM (inactive)
- GI50 (ACHN): 34 µM (inactive)
- GI50 (CAKI-1): 12.1 µM (inactive)
- GI50 (EKVX): 27.9 µM (inactive)
- GI50 (HOP-92): 13.6 µM (inactive)
- GI50 (LOX IMVI): 16.9 µM (inactive)
- GI50 (MDA-MB-231): 14.6 µM (inactive)
- GI50 (MDA-N): 16.5 µM (inactive)
- GI50 (NCI/ADR-RES): 64.9 µM (inactive)
- GI50 (OVCAR-3): > 10 µM (inactive)
- GI50 (RXF 393): 21.4 µM (inactive)
- GI50 (SK-MEL-5): 8 µM (inactive)
- GI50 (SK-OV-3): > 100 µM (inactive)
- GI50 (SNB-19): 37.1 µM (inactive)
- GI50 (U-251): 21.9 µM (inactive)
- GI50 (UACC-257): 19.6 µM (inactive)

SMILES: COC(=O)[C@H](Cc1ccccc1)NC(=O)[C@H](Cc1ccccc1)NC(=O)[C@@H]1CCCN1C(=O)N[C@H]1C2C=CC(C2)C1C(=O)N1CCC[C@H]1C(=O)N[C@@H](C)C(=O)N[C@H](C(=O)OC)C(C)C (stereo partly specified)
- GI50 (786-0): > 100 µM (inactive)
- GI50 (A498): > 100 µM (inactive)
- GI50 (A549): > 100 µM (inactive)
- GI50 (ACHN): > 100 µM (inactive)
- GI50 (CAKI-1): > 100 µM (inactive)
- GI50 (EKVX): > 100 µM (inactive)
- GI50 (HOP-92): 73.1 µM (inactive)
- GI50 (LOX IMVI): 41.3 µM (inactive)
- GI50 (MDA-MB-231): 46.5 µM (inactive)
- GI50 (MDA-N): > 100 µM (inactive)
- GI50 (NCI-H522): 56.5 µM (inactive)
- GI50 (NCI/ADR-RES): > 100 µM (inactive)
- GI50 (OVCAR-3): > 100 µM (inactive)
- GI50 (RXF 393): > 100 µM (inactive)
- GI50 (SK-MEL-5): > 100 µM (inactive)
- GI50 (SK-OV-3): > 100 µM (inactive)
- GI50 (SNB-19): > 100 µM (inactive)
- GI50 (U-251): 70.3 µM (inactive)
- GI50 (UACC-257): > 100 µM (inactive)

SMILES: O=c1oc2ccccc2c(O)c1C1c2c(c3ccccc3oc2=O)Oc2c1c(=O)oc1ccccc21
- GI50 (786-0): 43.1 µM (inactive)
- GI50 (A498): 49.5 µM (inactive)
- GI50 (ACHN): 28.4 µM (inactive)
- GI50 (CAKI-1): 30.3 µM (inactive)
- GI50 (EKVX): 45 µM (inactive)
- GI50 (HOP-92): 35.2 µM (inactive)
- GI50 (LOX IMVI): 38.5 µM (inactive)
- GI50 (MDA-MB-231): 32.4 µM (inactive)
- GI50 (MDA-N): 18.9 µM (inactive)
- GI50 (NCI-H522): 39 µM (inactive)
- GI50 (NCI/ADR-RES): 60.7 µM (inactive)
- GI50 (OVCAR-3): 61.8 µM (inactive)
- GI50 (RPMI-8226): 31.7 µM (inactive)
- GI50 (SK-MEL-5): 21 µM (inactive)
- GI50 (SNB-19): 48.5 µM (inactive)
- GI50 (U-251): 38.1 µM (inactive)
- GI50 (UACC-257): 34.8 µM (inactive)

SMILES: O=C(Cc1ccccc1)N[C@@H]1COC(=O)[C@@H]2CCCN2C(=O)[C@@H]2CCCN2C1=O (PhAc-[dS]-Pro-Pro; ester 1-C)
- GI50 (786-0): > 100 µM (inactive)
- GI50 (A498): > 100 µM (inactive)
- GI50 (A549): > 100 µM (inactive)
- GI50 (ACHN): > 100 µM (inactive)
- GI50 (CAKI-1): > 100 µM (inactive)
- GI50 (EKVX): > 100 µM (inactive)
- GI50 (HOP-92): > 100 µM (inactive)
- GI50 (LOX IMVI): > 100 µM (inactive)
- GI50 (MDA-MB-231): > 100 µM (inactive)
- GI50 (MDA-N): > 100 µM (inactive)
- GI50 (NCI/ADR-RES): > 100 µM (inactive)
- GI50 (OVCAR-3): > 100 µM (inactive)
- GI50 (RXF 393): > 100 µM (inactive)
- GI50 (SK-MEL-5): > 100 µM (inactive)
- GI50 (SK-OV-3): > 100 µM (inactive)
- GI50 (SNB-19): > 100 µM (inactive)
- GI50 (UACC-257): > 100 µM (inactive)

SMILES: O=C(O)c1cc(N(Cc2ccccc2O)Cc2cc(O)ccc2O)ccc1O [LAVENDUSTIN A]
- GI50 (786-0): > 100 µM (inactive)
- GI50 (A498): > 100 µM (inactive)
- GI50 (A549): > 100 µM (inactive)
- GI50 (ACHN): > 100 µM (inactive)
- GI50 (EKVX): > 100 µM (inactive)
- GI50 (HOP-92): > 100 µM (inactive)
- GI50 (LOX IMVI): 34.9 µM (inactive)
- GI50 (MDA-MB-231): > 100 µM (inactive)
- GI50 (MDA-N): > 100 µM (inactive)
- GI50 (NCI/ADR-RES): > 100 µM (inactive)
- GI50 (OVCAR-3): > 100 µM (inactive)
- GI50 (RPMI-8226): > 100 µM (inactive)
- GI50 (RXF 393): > 100 µM (inactive)
- GI50 (SK-MEL-5): > 100 µM (inactive)
- GI50 (SK-OV-3): > 100 µM (inactive)
- GI50 (SNB-19): > 100 µM (inactive)
- GI50 (U-251): > 100 µM (inactive)
- GI50 (UACC-257): > 100 µM (inactive)
